Measured values as given in paper PMC6347702 (Proceedings of the National Academy of Sciences of the …, 2019).

Tests used:
Assay in all cases: spectrophotometric enzyme assay, recombinant human enzyme, […] ATP-Mg2+
Assay type in all cases: biochemical
[1] = target: T1, hexokinase 2 (∆28-hHK2) (Homo sapiens, UniProt P52789)
T1 sequence (P52789 29-917): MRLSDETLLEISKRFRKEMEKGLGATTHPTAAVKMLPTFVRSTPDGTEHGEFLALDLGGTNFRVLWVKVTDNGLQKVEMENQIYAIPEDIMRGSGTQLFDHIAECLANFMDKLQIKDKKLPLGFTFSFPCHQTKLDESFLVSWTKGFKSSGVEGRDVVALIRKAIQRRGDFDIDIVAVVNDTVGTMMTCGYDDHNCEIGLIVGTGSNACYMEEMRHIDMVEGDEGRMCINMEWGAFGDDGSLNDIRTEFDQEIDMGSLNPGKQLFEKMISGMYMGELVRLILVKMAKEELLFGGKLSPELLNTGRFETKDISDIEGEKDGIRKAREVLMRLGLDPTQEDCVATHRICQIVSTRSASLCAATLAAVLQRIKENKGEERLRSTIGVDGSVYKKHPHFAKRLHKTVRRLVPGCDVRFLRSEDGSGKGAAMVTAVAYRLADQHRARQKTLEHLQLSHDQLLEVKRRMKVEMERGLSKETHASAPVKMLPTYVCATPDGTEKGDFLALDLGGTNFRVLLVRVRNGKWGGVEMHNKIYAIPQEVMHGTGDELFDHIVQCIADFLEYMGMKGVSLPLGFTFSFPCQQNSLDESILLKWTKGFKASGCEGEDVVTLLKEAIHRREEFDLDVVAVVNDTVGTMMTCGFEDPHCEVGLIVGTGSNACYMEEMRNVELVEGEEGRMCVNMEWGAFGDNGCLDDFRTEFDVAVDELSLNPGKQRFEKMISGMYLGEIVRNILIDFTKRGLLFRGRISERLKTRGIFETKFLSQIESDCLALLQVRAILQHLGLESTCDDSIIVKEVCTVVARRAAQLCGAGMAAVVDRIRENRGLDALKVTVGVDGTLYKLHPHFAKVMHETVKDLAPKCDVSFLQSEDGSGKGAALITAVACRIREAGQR

[2] = target: T2, hexokinase 1 (∆21-hHK1) (Homo sapiens, UniProt P19367)
T2 sequence (P19367 22-917): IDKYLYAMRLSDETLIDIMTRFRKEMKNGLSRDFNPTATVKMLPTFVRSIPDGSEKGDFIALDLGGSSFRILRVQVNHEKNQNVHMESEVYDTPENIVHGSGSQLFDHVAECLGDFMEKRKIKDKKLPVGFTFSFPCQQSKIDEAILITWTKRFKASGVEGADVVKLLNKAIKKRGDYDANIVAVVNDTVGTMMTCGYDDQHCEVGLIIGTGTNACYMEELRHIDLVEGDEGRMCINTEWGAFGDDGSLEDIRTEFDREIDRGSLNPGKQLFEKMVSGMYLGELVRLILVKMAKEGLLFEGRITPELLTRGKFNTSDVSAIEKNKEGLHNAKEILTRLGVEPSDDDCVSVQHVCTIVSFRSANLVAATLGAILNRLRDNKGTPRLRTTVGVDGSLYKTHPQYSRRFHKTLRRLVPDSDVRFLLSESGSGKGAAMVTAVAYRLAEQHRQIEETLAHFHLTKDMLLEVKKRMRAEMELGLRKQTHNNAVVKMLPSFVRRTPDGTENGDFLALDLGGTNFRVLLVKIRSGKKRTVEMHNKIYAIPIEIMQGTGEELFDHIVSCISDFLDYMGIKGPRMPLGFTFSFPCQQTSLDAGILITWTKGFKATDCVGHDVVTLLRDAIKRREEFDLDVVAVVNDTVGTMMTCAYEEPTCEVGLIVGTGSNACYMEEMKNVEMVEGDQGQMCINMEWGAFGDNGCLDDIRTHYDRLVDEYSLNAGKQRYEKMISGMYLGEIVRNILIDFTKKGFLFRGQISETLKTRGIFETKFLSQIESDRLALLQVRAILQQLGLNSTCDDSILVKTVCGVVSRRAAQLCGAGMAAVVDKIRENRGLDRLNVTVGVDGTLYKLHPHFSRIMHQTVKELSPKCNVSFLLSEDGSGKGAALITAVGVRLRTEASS

[3] = target: T3, hexokinase 3 (hHK3) (Homo sapiens, UniProt P52790)
T3 sequence (P52790 1-923): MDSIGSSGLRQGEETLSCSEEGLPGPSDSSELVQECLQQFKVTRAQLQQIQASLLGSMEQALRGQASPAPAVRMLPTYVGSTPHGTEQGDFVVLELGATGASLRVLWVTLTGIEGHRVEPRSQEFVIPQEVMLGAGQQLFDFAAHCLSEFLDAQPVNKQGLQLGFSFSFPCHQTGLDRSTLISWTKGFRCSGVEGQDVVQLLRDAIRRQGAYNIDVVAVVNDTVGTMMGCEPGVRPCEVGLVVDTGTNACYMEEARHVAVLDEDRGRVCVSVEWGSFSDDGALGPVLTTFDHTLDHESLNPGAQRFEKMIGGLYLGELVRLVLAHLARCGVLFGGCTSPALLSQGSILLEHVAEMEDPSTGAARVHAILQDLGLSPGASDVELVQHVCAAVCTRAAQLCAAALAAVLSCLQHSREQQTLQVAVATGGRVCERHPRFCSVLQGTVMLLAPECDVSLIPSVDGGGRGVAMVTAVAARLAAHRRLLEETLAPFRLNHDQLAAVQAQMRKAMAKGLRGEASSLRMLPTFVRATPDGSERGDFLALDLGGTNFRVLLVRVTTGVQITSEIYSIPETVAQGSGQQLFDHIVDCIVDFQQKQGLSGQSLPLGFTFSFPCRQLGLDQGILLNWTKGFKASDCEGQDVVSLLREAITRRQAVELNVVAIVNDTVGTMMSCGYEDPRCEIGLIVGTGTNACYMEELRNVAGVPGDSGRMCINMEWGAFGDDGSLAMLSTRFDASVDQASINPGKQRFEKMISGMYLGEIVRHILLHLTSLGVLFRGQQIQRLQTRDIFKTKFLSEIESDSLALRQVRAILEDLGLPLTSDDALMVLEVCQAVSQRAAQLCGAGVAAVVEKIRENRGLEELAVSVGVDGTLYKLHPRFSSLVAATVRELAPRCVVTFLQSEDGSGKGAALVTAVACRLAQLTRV

`O=P(O)(O)OC[C@H]1OC[C@H](O)[C@@H](O)[C@@H]1O` [1,5AG6P, 1,5-anhydroglucitol-6-phosphate] was tested, and the Ki [1] was 96 ± 3 µM, the Ki [2] was 53 ± 2 µM and the Ki [3] was 134 ± 9 µM.
